Experimental data as given in ChEMBL document CHEMBL1201862, “PubChem BioAssay data set” (2004).
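Interpolation was linear, between the two tested concentrations surrounding the appropriate level; five concentrations were tested over 48 hours in 96-well plates. Abbreviation: GI50, concentration required for 50% inhibition of growth.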 Activity calls are given as the source filed them. Cut-off read from the data, not from the text of the source: active = GI50 up to about 1.1 µM and inactive = higher.

Tests used:
Experiment in all cases: NCI tumour cell line growth inhibition, 48 h
HOP-92 = test system: HOP-92
RXF 393 = test system: RXF 393
NCI-H522 = test system: NCI-H522
NCI/ADR-RES = test system: NCI/ADR-RES
OVCAR-5 = test system: OVCAR-5
NCI-H226 = test system: NCI-H226
HL-60 = test system: HL-60
HOP-62 = test system: HOP-62
SW-620 = test system: SW-620
MDA-MB-435 = test system: MDA-MB-435
NCI-H23 = test system: NCI-H23
SK-OV-3 = test system: SK-OV-3
SF-539 = test system: SF-539
SF-295 = test system: SF-295
HCT-116 = test system: HCT-116
LOX IMVI = test system: LOX IMVI
RPMI-8226 = test system: RPMI-8226
CAKI-1 = test system: CAKI-1
SK-MEL-5 = test system: SK-MEL-5
NCI-H460 = test system: NCI-H460

Question: Which GI50 (HOP-92) does the source give for `O=C(O)CN(CC(=O)O)c1ccccc1` here?
Answer: 48.9 µM (inactive)

Question: What about the GI50 (RXF 393) of the same compound?
Answer: > 100 µM (inactive)

Question: What about the GI50 (NCI-H522) of the same compound?
Answer: 26.9 µM (inactive)

Question: And the GI50 (NCI/ADR-RES)?
Answer: > 100 µM (inactive)

Question: And the GI50 (OVCAR-5)?
Answer: > 100 µM (inactive)

Question: What about the GI50 (NCI-H226) of the same compound?
Answer: > 100 µM (inactive)

Question: And the GI50 (HL-60)?
Answer: 44.5 µM (inactive)

Question: What about the GI50 (HOP-62) of the same compound?
Answer: > 100 µM (inactive)

Question: And the GI50 (SW-620)?
Answer: > 100 µM (inactive)

Question: And the GI50 (MDA-MB-435)?
Answer: 70.6 µM (inactive)

Question: And the GI50 (NCI-H23)?
Answer: 75.3 µM (inactive)

Question: And the GI50 (SK-OV-3)?
Answer: > 100 µM (inactive)

Question: What about the GI50 (SF-539) of the same compound?
Answer: > 100 µM (inactive)

Question: What about the GI50 (SF-295) of the same compound?
Answer: > 100 µM (inactive)

Question: What about the GI50 (HCT-116) of the same compound?
Answer: 56.5 µM (inactive)

Question: What about the GI50 (LOX IMVI) of the same compound?
Answer: > 100 µM (inactive)

Question: What about the GI50 (RPMI-8226) of the same compound?
Answer: 35.6 µM (inactive)

Question: What about the GI50 (CAKI-1) of the same compound?
Answer: > 100 µM (inactive)

Question: What about the GI50 (SK-MEL-5) of the same compound?
Answer: 84.5 µM (inactive)

Question: And the GI50 (NCI-H460)?
Answer: 71.1 µM (inactive)

Question: What does the source list for `CCOC(=O)C(NC(=O)CC)(Nc1ccc(S(=O)(=O)Nc2nc(C)cc(C)n2)cc1)C(F)(F)F` (centres undefined)?
Answer: GI50 (HOP-92): > 100 µM (inactive); GI50 (RXF 393): > 100 µM (inactive); GI50 (NCI-H522): 31.6 µM (inactive); GI50 (NCI/ADR-RES): > 100 µM (inactive); GI50 (OVCAR-5): > 100 µM (inactive); GI50 (NCI-H226): > 100 µM (inactive); GI50 (HL-60): > 100 µM (inactive); GI50 (HOP-62): > 100 µM (inactive); GI50 (SW-620): > 100 µM (inactive); GI50 (MDA-MB-435): > 100 µM (inactive); GI50 (NCI-H23): > 100 µM (inactive); GI50 (SK-OV-3): > 100 µM (inactive); GI50 (SF-539): > 100 µM (inactive); GI50 (SF-295): > 100 µM (inactive); GI50 (HCT-116): > 100 µM (inactive); GI50 (LOX IMVI): > 100 µM (inactive); GI50 (RPMI-8226): > 100 µM (inactive); GI50 (CAKI-1): > 100 µM (inactive); GI50 (SK-MEL-5): > 100 µM (inactive); GI50 (NCI-H460): > 100 µM (inactive)

Question: Which results are given for `N=c1oc2c(Br)cc(Br)cc2cc1C(=O)Nc1ccccn1`?
Answer: GI50 (HOP-92): > 100 µM (inactive); GI50 (RXF 393): 75.3 µM (inactive); GI50 (NCI-H522): 47.2 µM (inactive); GI50 (NCI/ADR-RES): 61.4 µM (inactive); GI50 (OVCAR-5): > 100 µM (inactive); GI50 (NCI-H226): 84.9 µM (inactive); GI50 (HL-60): 57.5 µM (inactive); GI50 (HOP-62): 53 µM (inactive); GI50 (SW-620): > 100 µM (inactive); GI50 (MDA-MB-435): 62.1 µM (inactive); GI50 (NCI-H23): 69.2 µM (inactive); GI50 (SK-OV-3): > 100 µM (inactive); GI50 (SF-539): 31.8 µM (inactive); GI50 (HCT-116): 38.3 µM (inactive); GI50 (LOX IMVI): > 100 µM (inactive); GI50 (RPMI-8226): 87.1 µM (inactive); GI50 (CAKI-1): > 100 µM (inactive); GI50 (SK-MEL-5): 63.1 µM (inactive); GI50 (NCI-H460): 71.9 µM (inactive)

Question: `N#CS/C(C(Cl)=C(Cl)Cl)=C(/Cl)[N+](=O)[O-]` was tested. Which GI50 (HOP-92) did it give?
Answer: 2.37 µM (inactive)

Question: What about the GI50 (RXF 393) of the same compound?
Answer: 1.4 µM (inactive)

Question: And the GI50 (NCI-H522)?
Answer: 1.04 µM (active)

Question: And the GI50 (NCI/ADR-RES)?
Answer: 3.88 µM (inactive)

Question: And the GI50 (OVCAR-5)?
Answer: 1.7 µM (inactive)

Question: What about the GI50 (NCI-H226) of the same compound?
Answer: 7.66 µM (inactive)

Question: What about the GI50 (HL-60) of the same compound?
Answer: 0.219 µM (active)

Question: And the GI50 (HOP-62)?
Answer: 15.4 µM (inactive)

Question: What about the GI50 (SW-620) of the same compound?
Answer: 1.78 µM (inactive)

Question: And the GI50 (MDA-MB-435)?
Answer: 1.66 µM (inactive)

Question: What about the GI50 (NCI-H23) of the same compound?
Answer: 2.7 µM (inactive)

Question: What about the GI50 (SK-OV-3) of the same compound?
Answer: 17 µM (inactive)

Question: And the GI50 (SF-539)?
Answer: 6.44 µM (inactive)

Question: And the GI50 (SF-295)?
Answer: 22.2 µM (inactive)

Question: And the GI50 (HCT-116)?
Answer: 1.5 µM (inactive)

Question: What about the GI50 (LOX IMVI) of the same compound?
Answer: 0.904 µM (active)

Question: And the GI50 (RPMI-8226)?
Answer: 0.9 µM (active)

Question: What about the GI50 (CAKI-1) of the same compound?
Answer: 0.977 µM (active)

Question: What about the GI50 (SK-MEL-5) of the same compound?
Answer: 2.53 µM (inactive)

Question: What about the GI50 (NCI-H460) of the same compound?
Answer: 13.7 µM (inactive)

Question: For `CC(O)C1(O)C(O)CC(OC2c3cc4c(c(O)c3[C@@H]3C[C@@]2(C)OC32C=c3cc[nH]c3=N2)C(=O)c2cccc(O)c2C4=O)OC1C` (some centres undefined), which GI50 (HOP-92) is on record?
Answer: 1.64 µM (inactive)

Question: And the GI50 (RXF 393)?
Answer: 1.05 µM (active)

Question: What about the GI50 (NCI-H522) of the same compound?
Answer: 0.307 µM (active)

Question: What about the GI50 (NCI/ADR-RES) of the same compound?
Answer: 3.44 µM (inactive)

Question: What about the GI50 (OVCAR-5) of the same compound?
Answer: 3.08 µM (inactive)

Question: And the GI50 (NCI-H226)?
Answer: 0.701 µM (active)

Question: And the GI50 (HL-60)?
Answer: 0.598 µM (active)

Question: What about the GI50 (HOP-62) of the same compound?
Answer: 1.06 µM (active)

Question: And the GI50 (SW-620)?
Answer: 0.809 µM (active)

Question: What about the GI50 (MDA-MB-435) of the same compound?
Answer: 1.63 µM (inactive)

Question: And the GI50 (NCI-H23)?
Answer: 1.53 µM (inactive)

Question: And the GI50 (SK-OV-3)?
Answer: 1.75 µM (inactive)

Question: What about the GI50 (SF-539) of the same compound?
Answer: 1.19 µM (inactive)

Question: What about the GI50 (SF-295) of the same compound?
Answer: 1.87 µM (inactive)

Question: What about the GI50 (HCT-116) of the same compound?
Answer: 0.789 µM (active)

Question: And the GI50 (LOX IMVI)?
Answer: 0.555 µM (active)

Question: And the GI50 (RPMI-8226)?
Answer: 0.948 µM (active)

Question: And the GI50 (CAKI-1)?
Answer: 1.33 µM (inactive)

Question: And the GI50 (SK-MEL-5)?
Answer: 3.06 µM (inactive)

Question: What about the GI50 (NCI-H460) of the same compound?
Answer: 0.401 µM (active)

Question: With `C=C1C(=O)OC2/C=C(\CO)CC/C=C(\CO)CC(OC(=O)C(C)C)C12` (centres undefined) as the compound, how does the GI50 (HOP-92) read?
Answer: 1.27 µM (inactive)

Question: And the GI50 (RXF 393)?
Answer: 5.83 µM (inactive)

Question: What about the GI50 (NCI-H522) of the same compound?
Answer: 1.56 µM (inactive)

Question: And the GI50 (NCI/ADR-RES)?
Answer: 17.6 µM (inactive)

Question: And the GI50 (OVCAR-5)?
Answer: 15.9 µM (inactive)

Question: What about the GI50 (NCI-H226) of the same compound?
Answer: 16 µM (inactive)

Question: What about the GI50 (HL-60) of the same compound?
Answer: 2.87 µM (inactive)

Question: And the GI50 (HOP-62)?
Answer: 19.2 µM (inactive)

Question: And the GI50 (SW-620)?
Answer: 4.41 µM (inactive)

Question: And the GI50 (MDA-MB-435)?
Answer: 8.75 µM (inactive)

Question: What about the GI50 (NCI-H23) of the same compound?
Answer: 19.3 µM (inactive)

Question: And the GI50 (SK-OV-3)?
Answer: 27.2 µM (inactive)

Question: What about the GI50 (SF-539) of the same compound?
Answer: 14.9 µM (inactive)

Question: And the GI50 (SF-295)?
Answer: 21.3 µM (inactive)

Question: And the GI50 (HCT-116)?
Answer: 7.4 µM (inactive)

Question: And the GI50 (LOX IMVI)?
Answer: 13.5 µM (inactive)

Question: And the GI50 (RPMI-8226)?
Answer: 3.37 µM (inactive)

Question: What about the GI50 (CAKI-1) of the same compound?
Answer: 1.9 µM (inactive)

Question: And the GI50 (SK-MEL-5)?
Answer: 19 µM (inactive)

Question: What about the GI50 (NCI-H460) of the same compound?
Answer: 20.9 µM (inactive)

Question: `CNC(=O)O/N=C1\N(C)CN(c2ccccc2)C12CCN(CCCC(=O)c1ccc(F)cc1)CC2` was tested. Which GI50 (HOP-92) did it give?
Answer: 35.6 µM (inactive)

Question: And the GI50 (RXF 393)?
Answer: 83.6 µM (inactive)

Question: What about the GI50 (NCI-H522) of the same compound?
Answer: 99.8 µM (inactive)

Question: What about the GI50 (NCI/ADR-RES) of the same compound?
Answer: 45.9 µM (inactive)

Question: What about the GI50 (OVCAR-5) of the same compound?
Answer: 58.2 µM (inactive)

Question: What about the GI50 (NCI-H226) of the same compound?
Answer: > 100 µM (inactive)

Question: And the GI50 (HL-60)?
Answer: 82 µM (inactive)

Question: What about the GI50 (HOP-62) of the same compound?
Answer: 39.4 µM (inactive)

Question: And the GI50 (SW-620)?
Answer: > 100 µM (inactive)

Question: What about the GI50 (MDA-MB-435) of the same compound?
Answer: 45.9 µM (inactive)

Question: What about the GI50 (NCI-H23) of the same compound?
Answer: > 100 µM (inactive)

Question: And the GI50 (SK-OV-3)?
Answer: > 100 µM (inactive)

Question: What about the GI50 (SF-539) of the same compound?
Answer: 50.6 µM (inactive)

Question: And the GI50 (SF-295)?
Answer: > 100 µM (inactive)

Question: What about the GI50 (HCT-116) of the same compound?
Answer: 33 µM (inactive)

Question: And the GI50 (LOX IMVI)?
Answer: 31.1 µM (inactive)

Question: What about the GI50 (RPMI-8226) of the same compound?
Answer: > 100 µM (inactive)

Question: And the GI50 (CAKI-1)?
Answer: > 100 µM (inactive)

Question: What about the GI50 (SK-MEL-5) of the same compound?
Answer: 18.5 µM (inactive)

Question: And the GI50 (NCI-H460)?
Answer: 44.1 µM (inactive)
